From patent US20080221109A1, “PESTICIDAL SUBSTITUTED THIOETHERS” (priority 2005, published 2008)

`O=C1CCCCC1Sc1ncccn1` (stereo not shown) [Compound 03-43, 2-(Pyrimidin-2-ylsulfanyl)-cyclohexanone] showed a melting point of 51 °C.
